The test system of the series is pemphigus vulgaris. Kind of series: Observation of leflunomide treatment in humans. The format is in vivo. The note with it: one patient. How it is done: This diarrhea adversely affected the quality of life of the patient. Because of the problems caused by this side effect, an attempt was made, after more than two years' therapy with a constant dose of 20 mg of leflunomide per day, to end the therapy.
This observation was surprising, as the active metabolite of leflunomide, compound 1, has a half-life of approximately 14 days in humans. Furthermore, in this patient the blood levels of the active metabolite of leflunomide were repeatedly determined in the relatively high range between 70 mg/l and 85 mg/l.

Each structure is given as a SMILES string.

In the case of `Cc1oncc1C(=O)Nc1ccc(C(F)(F)F)cc1` [leflunomide, N-(4-trifluoromethylphenyl)-5-methylisoxazole-4-carboxamide], where the note is “20 mg of leflunomide per day”, the “side effect of treatment” value is “permanent diarrhea” and the “symptoms of pemphigus vulgaris under therapy” value is “completely disappeared”. For the same compound, where the note is “after more than two years' therapy”, the “pemphigus vulgaris four days following discontinuation” value is “occurred again severely”.

The record behind these values is patent publication US6716411B2, “Method for finding nucleotide synthesis inhibitors having fewer side effects” (Aventis Pharma Deustschland GmbH, priority 1999, dated 2004).
